Data set [1] deals with indomethacin-induced rat gastric ulcers. To be noted: subcutaneous, 50 μg/kg; cited from earlier work.
The conditions of data set [2]: room temperature; presence of water (U.S. Pat. No. 5,324,746); cited from earlier work.
Data set [3] has as its system isolated canine parietal cell preparation. Description: Inhibition of histamine-stimulated acid secretion in an isolated canine parietal cell preparation. The data set is classed as cell-based. Particulars: Canis lupus familiaris, read-out: IC50 (nM), concentration required to inhibit 50% of maximal histamine-stimulated acid secretion. An excerpt:
Concentrations required to inhibit 50% of maximal histamine-stimulated acid secretion in an isolated canine parietal cell preparation is shown in Table 1 below.

`CCCCC(C)(O)C/C=C/[C@H]1C(O)CC(=O)[C@@H]1CCCCCCC(=O)OC` (stereo partly drawn) [Misoprostol]: the reduced lesion formulation entry in data set [1] is recorded as “up to 60%”. Moreover, in data set [2], the chemical stability result was “chemically unstable at room temperature and breaks down in the presence of water”. In addition, the IC50 in data set [3] stood at 3.8 nM.

The record behind these values is patent publication US20100010046A1, “PHARMACEUTICAL FORMULATION FOR PARENTERAL ADMINISTRATION” (IRONWOOD PHARMACEUTICALS, INC., priority 2006, published 2010).
